The source of these data is patent publication US11053239B2, “Compounds as BLC-2-selective apoptosis-inducing agents” (Fochon Pharmaceuticals, Ltd., priority 2017, dated 2021).

One assay relates to RS4; 11 cells. Description: Cell proliferation assay (MTS), RS4; 11 cells. Type of assay: cell-based. The settings on record: Homo sapiens, RS4-11, 72 h, read-out: RS4. Summed up: (§1)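 RS4;11 (30000 cells/well, 72 h) and DOHH2 (5000 cells/well, 120 h) cells in RPMI-1640/10% FBS, treated at 37 °C with compound at 1.5–10000 nM final. Viability by MTS (2 h, SDS stop), absorbance 490 nm minus 650 nm reference; IC50 fitted.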

For a further assay, the system named is DOHH2 cells. Description: Cell proliferation assay (MTS), DOHH2 cells. The format is cell-based. The note with it: Homo sapiens, DOHH-2, 120 h. Summed up:
as §1

[1] abbreviates: RS4, 11 (ATCC CRL-1873) cell proliferation, 30000 cells/well, 72 h, MTS, mechanism-based readout of Bcl-2 inhibition, 11 IC50.
[2] abbreviates: DOHH2 (DSMZ ACC 47) cell proliferation, 5000 cells/well, 120 h, MTS, mechanism-based readout of Bcl-2 inhibition, read-out: DOHH2 IC50.

Like-named read-outs stand apart in the source and are kept apart here.

`C[C@@H](CN1CCS(=O)(=NC#N)CC1)Nc1ccc(S(=O)(=O)NC(=O)c2ccc(N3CCN(CC4=C(c5ccc(Cl)cc5)CC(C)(C)CC4)CC3)cc2Oc2cnc3[nH]ccc3c2)cc1[N+](=O)[O-]` [Example 6, (S)-2-((1H-pyrrolo[2,3-b]pyridin-5-yl)oxy)-4-(4-((4′-chloro-5,5-dimethyl-3,4,5,6-tetrahydro-[1,1′-biphenyl]-2-yl)methyl)piperazin-1-yl)-N-((4-((1-(1-(cyanoimino)-1-oxido-1λ^6-thiomorpholino)propan-2-yl)amino)-3-nitrophenyl)sulfonyl)benzamide]: the IC50 was 36 nM in the assay with RS4; 11 cells (setting [1]) and 150 nM in the assay with DOHH2 cells (setting [2]).
`CC(C)C(=O)N=S1(=O)CCN(CCNc2ccc(S(=O)(=O)NC(=O)c3ccc(N4CCN(CC5=C(c6ccc(Cl)cc6)CC(C)(C)CC5)CC4)cc3Oc3cnc4[nH]ccc4c3)cc2[N+](=O)[O-])CC1` [Example 68, 2-((1H-pyrrolo[2,3-b]pyridin-5-yl)oxy)-4-(4-((4′-chloro-5,5-dimethyl-3,4,5,6-tetrahydro-[1,1′-biphenyl]-2-yl)methyl)piperazin-1-yl)-N-((4-((2-(1-(isobutyrylimino)-1-oxido-1λ^6-thiomorpholino)ethyl)amino)-3-nitrophenyl)sulfonyl) benzamide]: the IC50 turned out to be 24 nM in the assay on RS4; 11 cells (setting [1]) and 217 nM in the assay with DOHH2 cells (setting [2]).
With `CCS(=O)(CC)=NC1CCC(CNc2ccc(S(=O)(=O)NC(=O)c3ccc(N4CCN(CC5=C(c6ccc(Cl)cc6)CC(C)(C)CC5)CC4)cc3Oc3cnc4[nH]ccc4c3)cc2[N+](=O)[O-])CC1` (stereo not shown) [Example 9B, 2-((1H-pyrrolo[2,3-b]pyridin-5-yl)oxy)-4-(4-((4′-chloro-5,5-dimethyl-3,4,5,6-tetrahydro-[1,1′-biphenyl]-2-yl)methyl)piperazin-1-yl)-N-((4-((((1r,4r)-4-((diethyl(oxo)-λ^6-sulfanylidene)amino)cyclohexyl)methyl)amino)-3-nitrophenyl)sulfonyl)benzamide], the IC50 was 5 nM with RS4; 11 cells (11 IC50 (nM)) and 11 nM in the assay on DOHH2 cells (read-out: DOHH2 IC50 (nM)).
On to `CCC(=O)N=S1(=O)CCN(CC[C@H](C)Nc2ccc(S(=O)(=O)NC(=O)c3ccc(N4CCN(CC5=C(c6ccc(Cl)cc6)CC(C)(C)CC5)CC4)cc3Oc3cnc4[nH]ccc4c3)cc2[N+](=O)[O-])CC1` [Example 81, (S)-2-((1H-pyrrolo[2,3-b]pyridin-5-yl)oxy)-4-(4-((4′-chloro-5,5-dimethyl-3,4,5,6-tetrahydro-[1,1′-biphenyl]-2-yl)methyl)piperazin-1-yl)-N-((3-nitro-4-((4-(1-oxido-1-(propionylimino)-1λ^6-thiomorpholino)butan-2-yl)amino)phenyl)sulfonyl) benzamide], for which the IC50 is 7 nM in the assay on RS4; 11 cells (setting [1]) and 30 nM with DOHH2 cells (setting [2]).
Taken in the same sequence, the figures for `CCC(=O)N=S1(=O)CCN(CCNc2ccc(S(=O)(=O)NC(=O)c3ccc(N4CCN(CC5=C(c6ccc(Cl)cc6)CC(C)(C)CC5)CC4)cc3Oc3cnc4[nH]ccc4c3)cc2[N+](=O)[O-])CC1` [Example 67, 2-((1H-pyrrolo[2,3-b]pyridin-5-yl)oxy)-4-(4-((4′-chloro-5,5-dimethyl-3,4,5,6-tetrahydro-[1,1′-biphenyl]-2-yl)methyl)piperazin-1-yl)-N-((3-nitro-4-((2-(1-oxido-1-(propionylimino)-1λ^6-thiomorpholino)ethyl)amino)phenyl)sulfonyl)benzamide] were 32 nM and 138 nM.
Taken in the same sequence, the figures for `CC1(C)CCC(CN2CCN(c3ccc(C(=O)NS(=O)(=O)c4ccc(NCC5CCOCC5)c([N+](=O)[O-])c4)c(Oc4cnc5[nH]ccc5c4)c3)CC2)=C(c2ccc(Cl)cc2)C1` [Reference compound 1, 2-((1H-pyrrolo[2,3-b]pyridin-5-yl)oxy)-4-(4-((4′-chloro-5,5-dimethyl-3,4,5,6-tetrahydro-[1,1′-biphenyl]-2-yl)methyl)piperazin-1-yl)-N-((3-nitro-4-(((tetrahydro-2H-pyran-4-yl)methyl)amino)phenyl)sulfonyl)benzamide, reference compound] were 18 nM and 57 nM.
The corresponding values for `CN=S1(=O)CCN(C[C@H](C)Nc2ccc(S(=O)(=O)NC(=O)c3ccc(N4CCN(CC5=C(c6ccc(Cl)cc6)CC(C)(C)CC5)CC4)cc3Oc3cnc4[nH]ccc4c3)cc2[N+](=O)[O-])CC1` [Example 7, (S)-2-((1H-pyrrolo[2,3-b]pyridin-5-yl)oxy)-4-(4-((4′-chloro-5,5-dimethyl-3,4,5,6-tetrahydro-[1,1′-biphenyl]-2-yl)methyl)piperazin-1-yl)-N-((4-((1-(1-(methylimino)-1-oxido-1λ^6-thiomorpholino)propan-2-yl)amino)-3-nitrophenyl)sulfonyl)benzamide] are 55 nM and 111 nM.
For `CC1(C)CCC(CN2CCN(c3ccc(C(=O)NS(=O)(=O)c4ccc(NCC5CCC(N=S6(=O)CCCC6)CC5)c([N+](=O)[O-])c4)c(Oc4cnc5[nH]ccc5c4)c3)CC2)=C(c2ccc(Cl)cc2)C1` (stereo not shown) [Example 53, 2-((1H-pyrrolo[2,3-b]pyridin-5-yl)oxy)-4-(4-((4′-chloro-5,5-dimethyl-3,4,5,6-tetrahydro-[1,1′-biphenyl]-2-yl)methyl)piperazin-1-yl)-N-((3-nitro-4-(((4-((1-oxidotetrahydro-1λ^6-thiophen-1-ylidene)amino)cyclohexyl)methyl)amino)phenyl)sulfonyl)benzamide], the results for the IC50 in the assay on RS4; 11 cells (setting [1]) and in the assay on DOHH2 cells (setting [2]) were 7 nM and 11 nM, respectively.
With `COC(=O)N=S1(=O)CCN(CC[C@H](C)Nc2ccc(S(=O)(=O)NC(=O)c3ccc(N4CCN(CC5=C(c6ccc(Cl)cc6)CC(C)(C)CC5)CC4)cc3Oc3cnc4[nH]ccc4c3)cc2S(=O)(=O)C(F)(F)F)CC1` [Example 92, methyl (S)-(4-(3-((4-(N-(2-((1H-pyrrolo[2,3-b]pyridin-5-yl)oxy)-4-(4-((4′-chloro-5,5-dimethyl-3,4,5,6-tetrahydro-[1,1′-biphenyl]-2-yl)methyl)piperazin-1-yl)benzoyl)sulfamoyl)-2-((trifluoromethyl)sulfonyl)phenyl)amino)butyl)-1-oxido-1λ^6-thiomorpholin-1-ylidene) carbamate], the IC50 in the assay on RS4; 11 cells (setting [1]) is 109 nM; with DOHH2 cells (setting [2]), 53 nM.
With `CCN=S1(=O)CCN(C[C@H](C)Nc2ccc(S(=O)(=O)NC(=O)c3ccc(N4CCN(CC5=C(c6ccc(Cl)cc6)CC(C)(C)CC5)CC4)cc3Oc3cnc4[nH]ccc4c3)cc2[N+](=O)[O-])CC1` [Example 38, (S)-((1H-pyrrolo[2,3-b]pyridin-5-yl)oxy)-4-(4-((4′-chloro-5,5-dimethyl-3,4,5,6-tetrahydro-[1,1′-biphenyl]-2-yl)methyl)piperazin-1-yl)-N-((4-((1-(1-(ethylimino)-1-oxido-1λ^6-thiomorpholino)propan-2-yl)amino)-3-nitrophenyl)sulfonyl) benzamide], the IC50 was determined as 28 nM with RS4; 11 cells (setting [1]) and 108 nM with DOHH2 cells (setting [2]).
Take `CC1(C)CCC(CN2CCN(c3ccc(C(=O)NS(=O)(=O)c4ccc(NCC5CCC(N=S6(=O)CCOCC6)CC5)c([N+](=O)[O-])c4)c(Oc4cnc5[nH]ccc5c4)c3)CC2)=C(c2ccc(Cl)cc2)C1` (stereo not shown) [Example 54, 2-((1H-pyrrolo[2,3-b]pyridin-5-yl)oxy)-4-(4-((4′-chloro-5,5-dimethyl-3,4,5,6-tetrahydro-[1,1′-biphenyl]-2-yl)methyl)piperazin-1-yl)-N-((3-nitro-4-(((4-((4-oxido-1,4λ^6-oxathian-4-ylidene)amino)cyclohexyl)methyl)amino)phenyl)sulfonyl) benzamide]: the IC50 amounted to 4 nM in the assay with RS4; 11 cells (setting [1]) and 9 nM in the assay with DOHH2 cells (setting [2]).
For the compound `CC1(C)CCC(CN2CCN(c3ccc(C(=O)NS(=O)(=O)c4ccc(NCC5CCC(N=S6(=O)CCCC6)CC5)c(S(=O)(=O)C(F)(F)F)c4)c(Oc4cnc5[nH]ccc5c4)c3)CC2)=C(c2ccc(Cl)cc2)C1` (stereo not shown) [Example 64, 2-((1H-pyrrolo[2,3-b]pyridin-5-yl)oxy)-4-(4-((4′-chloro-5,5-dimethyl-3,4,5,6-tetrahydro-[1,1′-biphenyl]-2-yl)methyl)piperazin-1-yl)-N-((4-(((4-((1-oxidotetrahydro-1λ^6-thiophen-1-ylidene)amino)cyclohexyl)methyl)amino)-3-((trifluoromethyl)sulfonyl)phenyl)sulfonyl)benzamide], the IC50 with RS4; 11 cells (setting [1]) turned out to be 216 nM; in the assay on DOHH2 cells (setting [2]), 320 nM.
Turning to `CC1(C)CCC(CN2CCN(c3ccc(C(=O)NS(=O)(=O)c4ccc(NCC5CCS(=O)(=NC6CC6)CC5)c([N+](=O)[O-])c4)c(Oc4cnc5[nH]ccc5c4)c3)CC2)=C(c2ccc(Cl)cc2)C1` (stereo not shown) [Example 5, 2-((1H-pyrrolo[2,3-b]pyridin-5-yl)oxy)-4-(4-((4′-chloro-5,5-dimethyl-3,4,5,6-tetrahydro-[1,1′-biphenyl]-2-yl)methyl)piperazin-1-yl)-N-((4-(((1-(cyclopropylimino)-1-oxidohexahydro-1λ^6-thiopyran-4-yl)methyl)amino)-3-nitrophenyl)sulfonyl)benzamide], the IC50 with RS4; 11 cells (setting [1]) came to 43 nM; with DOHH2 cells (setting [2]) it was 92 nM.
Consider `CC(C)OC(=O)N=S1(=O)CCN(C[C@H](C)Nc2ccc(S(=O)(=O)NC(=O)c3ccc(N4CCN(CC5=C(c6ccc(Cl)cc6)CC(C)(C)CC5)CC4)cc3Oc3cnc4[nH]ccc4c3)cc2[N+](=O)[O-])CC1` [Example 73, isopropyl (S)-(4-(2-((4-(N-(2-((1H-pyrrolo[2,3-b]pyridin-5-yl)oxy)-4-(4-((4′-chloro-5,5-dimethyl-3,4,5,6-tetrahydro-[1,1′-biphenyl]-2-yl)methyl)piperazin-1-yl)benzoyl)sulfamoyl)-2-nitrophenyl)amino)propyl)-1-oxido-1λ^6-thiomorpholin-1-ylidene)carbamate], for which the IC50 turned out to be 94 nM with RS4; 11 cells (setting [1]) and 263 nM in the assay on DOHH2 cells (setting [2]).
